Target: T1, human plasma kallikrein (Homo sapiens, UniProt P03952)
T1 construct: purchased Abcam
Assay: In vitro enzyme inhibition of human plasma kallikrein (Pro-Phe-Arg-AMC cleavage)
Format: biochemical
Conditions: human Plasma Kallikrein (Abcam), substrate Pro-Phe-Arg-AMC, 37° C., Tris-HCl pH 7.5; read-out: hPK IC50
Protocol: The ability of the compounds disclosed herein to inhibit human plasma kallikrein activity was quantified according to the procedures below.
A 10 mM solution of the test compound was made in DMSO. This solution was serially diluted 1:5 in DMSO to yield 2000, 400, 80, 16, 3.2, 0.64, 0.128, 0.0256 and […] compound test solutions. A control tube containing only DMSO is included. 16 μL of each compound test solution was combined with 384 μL of assay buffer (50 mM Tris-HCl pH 7.5, 150 mM NaCl, 0.01% Triton X-100) to yield a “4× test compound buffer stock”. Separately, a 40 nM solution of human Plasma Kallikrein (Abcam) and a 93.6 μM solution Pro-Phe-Arg-AMC (Bachem) were made using assay buffer. These solutions are hereby referred to as 4× hPK and 2×PFR-AMC, respectively.
60 μL of each 4× test compound buffer stock was combined with 60 μL of 4× hPK to yield 120 μL of “2× test compound buffer stock/2× hPK”. 50 μL was removed from this mixture and placed into duplicate wells on a Microfluor 1Black U-bottom microtiter plate (Thermo Scientific). This plate was incubated for 5 minutes at 37° C. To each well, 50 μL of pre-warmed 2×PFR-AMC was added to start the enzymatic reaction. Cleavage of PFR-AMC was monitored in a Biotek Synergy H4 reader set at 37° C. Readings are taken every 43 seconds for 1 hour. The highest mean velocity over 20 reads (˜15 minutes) is used to calculate the IC50. The IC50 is calculated using the Gen5 (Biotek Instruments).
The ability of the compounds in Table 4 to inhibit human plasma kallikrein activity was determined.

T1 sequence (P03952 391-638 limits assumed): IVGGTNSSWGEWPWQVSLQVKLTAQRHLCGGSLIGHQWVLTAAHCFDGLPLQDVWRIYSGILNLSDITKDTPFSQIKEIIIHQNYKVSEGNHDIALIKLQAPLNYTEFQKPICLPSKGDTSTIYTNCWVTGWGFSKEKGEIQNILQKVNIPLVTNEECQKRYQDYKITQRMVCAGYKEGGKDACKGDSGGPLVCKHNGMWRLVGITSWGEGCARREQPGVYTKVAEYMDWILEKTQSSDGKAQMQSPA
T1 sequence (P03952 20-390 partner limits assumed): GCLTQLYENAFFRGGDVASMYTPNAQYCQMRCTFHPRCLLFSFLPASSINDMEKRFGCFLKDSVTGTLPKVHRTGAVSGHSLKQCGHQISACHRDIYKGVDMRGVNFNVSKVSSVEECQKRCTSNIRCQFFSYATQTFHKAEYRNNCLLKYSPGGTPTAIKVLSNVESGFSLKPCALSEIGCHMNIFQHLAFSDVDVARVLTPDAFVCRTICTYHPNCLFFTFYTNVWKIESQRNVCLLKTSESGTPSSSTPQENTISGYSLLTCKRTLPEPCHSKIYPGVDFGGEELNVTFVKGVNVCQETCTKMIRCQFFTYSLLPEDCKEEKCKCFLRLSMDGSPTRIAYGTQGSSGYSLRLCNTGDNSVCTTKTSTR

Row | IC50 [nM] | SMILES
1 | ≤ 100 | FC(F)(F)c1cnc2ccc(Cc3nc4ncnc(NCc5n[nH]c6ccc(Cl)cc56)c4[nH]3)cc2c1 [Example 12, N-((5-chloro-1H-indazol-3-yl)methyl)-8-((3-(trifluoromethyl)quinolin-6-yl)methyl)-7H-purin-6-amine]
2 | ≤ 100 | Cc1cc(N)nc(C)c1CNc1ncnc2nc(Cc3ccc4ncc(Cl)cc4c3)[nH]c12 [Example 19, N-((6-amino-2,4-dimethylpyridin-3-yl)methyl)-8-((3-chloroquinolin-6-yl)methyl)-7H-purin-6-amine]
3 | 1000 to 10000 | Cc1cc(N)nc(C)c1CNc1nccc2nc(Cc3ccc4ncc(Cl)cc4c3)[nH]c12 [Example 4, N-((6-amino-2,4-dimethylpyridin-3-yl)methyl)-2-((3-chloroquinolin-6-yl)methyl)-3H-imidazo[4,5-c]pyridin-4-amine]
4 | 100 to 1000 | Clc1cnc2ccc(Cc3cc4c(NCc5cnc6[nH]cc(Cl)c6c5)n[nH]c4cn3)cc2c1 [Example 20, N-((3-chloro-1H-pyrrolo[2,3-b]pyridin-5-yl)methyl)-5-((3-chloroquinolin-6-yl)methyl)-1H-pyrazolo[3,4-c]pyridin-3-amine]
5 | ≤ 100 | Fc1cc2[nH]cc(Cl)c2cc1CNc1ncnc2nc(Cc3ccc4ncc(Cl)cc4c3)[nH]c12 [Example 5]
6 | ≤ 100 | Nc1nccc2cc(CNc3ncnc4nc(Cc5ccc6ncc(C(F)(F)F)cc6c5)[nH]c34)ccc12 [Example 14, 6-(((8-((3-(trifluoromethyl)quinolin-6-yl)methyl)-7H-purin-6-yl)amino)methyl)isoquinolin-1-amine]
7 | ≤ 100 | Clc1cnc2ccc(Cc3nc4ncnc(NCc5n[nH]c6ccc(Cl)cc56)c4[nH]3)cc2c1 [Example 6, N-((5-chloro-1H-indazol-3-yl)methyl)-8-((3-chloroquinolin-6-yl)methyl)-7H-purin-6-amine]
8 | ≤ 100 | Fc1cc2[nH]cc(Cl)c2cc1CNc1ncnc2nc(Cc3ccc4ncc(C(F)(F)F)cc4c3)[nH]c12 [Example 11, N-((3-chloro-6-fluoro-1H-indol-5-yl)methyl)-8-((3-(trifluoromethyl)quinolin-6-yl)methyl)-7H-purin-6-amine]
9 | 100 to 1000 | FC(F)(F)c1cnc2ccc(Cc3nc4ncnc(NCc5cnc6[nH]cc(Cl)c6c5)c4[nH]3)cc2c1 [Example 15, N-((3-chloro-1H-pyrrolo[2,3-b]pyridin-5-yl)methyl)-8-((3-(trifluoromethyl)quinolin-6-yl)methyl)-7H-purin-6-amine]
10 | 100 to 1000 | Clc1cnc2ccc(Cc3ccc4[nH]nc(NCc5cnc6[nH]cc(Cl)c6c5)c4c3)cc2c1 [Example 3, N-((3-chloro-1H-pyrrolo[2,3-b]pyridin-5-yl)methyl)-5-((3-chloroquinolin-6-yl)methyl)-1H-indazol-3-amine]
11 | ≤ 100 | Clc1cnc2ccc(Cc3nc4ncnc(NCc5cnc6[nH]cc(Cl)c6c5)c4[nH]3)cc2c1 [Example 8, N-((3-chloro-1H-pyrrolo[2,3-b]pyridin-5-yl)methyl)-8-((3-chloroquinolin-6-yl)methyl)-7H-purin-6-amine]
12 | 100 to 1000 | Cn1nc(NCc2cnc3[nH]cc(Cl)c3c2)c2cc(Cc3ccc4ncc(Cl)cc4c3)ccc21 [Example 2, N-((3-chloro-1H-pyrrolo[2,3-b]pyridin-5-yl)methyl)-5-((3-chloroquinolin-6-yl)methyl)-1-methyl-1H-indazol-3-amine]
13 | ≤ 100 | Cc1cc(N)nc(C)c1CNc1ncnc2cn(Cc3ccc4ncc(Cl)cc4c3)nc12 [Example 9, N-((6-amino-2,4-dimethylpyridin-3-yl)methyl)-2-((3-chloroquinolin-6-yl)methyl)-2H-pyrazolo[4,3-d]pyrimidin-7-amine]
14 | 100 to 1000 | O=C(NCc1cc2c(Cl)c[nH]c2cc1F)c1ccc2c(c1)C(c1ccc3ncc(Cl)cc3c1)OC2 (stereo not shown) [Example 21, N-((3-chloro-6-fluoro-1H-indol-5-yl)methyl)-3-(3-chloroquinolin-6-yl)-1,3-dihydroisobenzofuran-5-carboxamide]
15 | ≤ 100 | Fc1c(CNc2ncnc3nc(Cc4ccc5ncc(C(F)(F)F)cc5c4)[nH]c23)ccc2[nH]cc(Cl)c12 [Example 13, N-((3-chloro-4-fluoro-1H-indol-5-yl)methyl)-8-((3-(trifluoromethyl)quinolin-6-yl)methyl)-7H-purin-6-amine]
16 | 100 to 1000 | Clc1cnc2ccc(Cc3ccc4onc(NCc5cnc6[nH]cc(Cl)c6c5)c4c3)cc2c1 [Example 1, N-((3-chloro-1H-pyrrolo[2,3-b]pyridin-5-yl)methyl)-5-((3-chloroquinolin-6-yl)methyl)benzo[d]isoxazol-3-amine]
17 | 100 to 1000 | Clc1c[nH]c2ncc(CNc3ncnc4nc(Cc5ccc6ncccc6c5)[nH]c34)cc12 [Example 17, N-((3-chloro-1H-pyrrolo[2,3-b]pyridin-5-yl)methyl)-8-(quinolin-6-ylmethyl)-7H-purin-6-amine]

Row | SMILES | IC50 [nM]
18 | Fc1c(CNc2ncnc3nc(Cc4ccc5ncc(Cl)cc5c4)[nH]c23)ccc2[nH]cc(Cl)c12 [Example 7, N-((3-chloro-4-fluoro-1H-indol-5-yl)methyl)-8-((3-chloroquinolin-6-yl)methyl)-7H-purin-6-amine] | ≤ 100
19 | Cc1cc(N)nc(C)c1CNc1ncnc2nc(Cc3ccc4ncc(C(F)(F)F)cc4c3)[nH]c12 [Example 10, N-((6-amino-2,4-dimethylpyridin-3-yl)methyl)-8-((3-(trifluoromethyl)quinolin-6-yl)methyl)-7H-purin-6-amine] | ≤ 100

Reference: patent publication US20190263818A1 (LifeSci Pharmaceuticals, Inc., priority 2015, published 2019)
